# Assay results as given in ChEMBL document CHEMBL1156722, “A novel 5-[1,3,4-oxadiazol-2-yl]-N-aryl-4,6-pyrimidine diamine having dual EGFR/HER2 kinase activity: design, synthesis, and biological activity” (Bioorg Med Chem Lett, 2008).
# How the values were obtained:
# Aurora kinase A = target: T1, Aurora kinase A (Homo sapiens, UniProt O14965); assay: Inhibition of Aurora A
# T1 sequence (O14965 whole entry): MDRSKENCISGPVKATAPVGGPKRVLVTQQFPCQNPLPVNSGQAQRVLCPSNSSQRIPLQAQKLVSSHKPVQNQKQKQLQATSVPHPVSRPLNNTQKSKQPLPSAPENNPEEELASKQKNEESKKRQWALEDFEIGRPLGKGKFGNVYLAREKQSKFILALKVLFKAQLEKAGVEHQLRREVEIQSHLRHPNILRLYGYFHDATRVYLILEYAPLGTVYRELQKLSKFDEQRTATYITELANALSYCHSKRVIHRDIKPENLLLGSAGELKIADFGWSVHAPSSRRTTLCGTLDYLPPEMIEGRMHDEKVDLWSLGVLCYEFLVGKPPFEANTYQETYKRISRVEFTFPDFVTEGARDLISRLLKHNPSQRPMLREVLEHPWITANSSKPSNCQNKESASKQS
# [1] = target: T2, Vascular endothelial growth factor receptor 2 (Homo sapiens, UniProt P35968); assay: Inhibition of VEGFR2
# T2 sequence (P35968 whole entry): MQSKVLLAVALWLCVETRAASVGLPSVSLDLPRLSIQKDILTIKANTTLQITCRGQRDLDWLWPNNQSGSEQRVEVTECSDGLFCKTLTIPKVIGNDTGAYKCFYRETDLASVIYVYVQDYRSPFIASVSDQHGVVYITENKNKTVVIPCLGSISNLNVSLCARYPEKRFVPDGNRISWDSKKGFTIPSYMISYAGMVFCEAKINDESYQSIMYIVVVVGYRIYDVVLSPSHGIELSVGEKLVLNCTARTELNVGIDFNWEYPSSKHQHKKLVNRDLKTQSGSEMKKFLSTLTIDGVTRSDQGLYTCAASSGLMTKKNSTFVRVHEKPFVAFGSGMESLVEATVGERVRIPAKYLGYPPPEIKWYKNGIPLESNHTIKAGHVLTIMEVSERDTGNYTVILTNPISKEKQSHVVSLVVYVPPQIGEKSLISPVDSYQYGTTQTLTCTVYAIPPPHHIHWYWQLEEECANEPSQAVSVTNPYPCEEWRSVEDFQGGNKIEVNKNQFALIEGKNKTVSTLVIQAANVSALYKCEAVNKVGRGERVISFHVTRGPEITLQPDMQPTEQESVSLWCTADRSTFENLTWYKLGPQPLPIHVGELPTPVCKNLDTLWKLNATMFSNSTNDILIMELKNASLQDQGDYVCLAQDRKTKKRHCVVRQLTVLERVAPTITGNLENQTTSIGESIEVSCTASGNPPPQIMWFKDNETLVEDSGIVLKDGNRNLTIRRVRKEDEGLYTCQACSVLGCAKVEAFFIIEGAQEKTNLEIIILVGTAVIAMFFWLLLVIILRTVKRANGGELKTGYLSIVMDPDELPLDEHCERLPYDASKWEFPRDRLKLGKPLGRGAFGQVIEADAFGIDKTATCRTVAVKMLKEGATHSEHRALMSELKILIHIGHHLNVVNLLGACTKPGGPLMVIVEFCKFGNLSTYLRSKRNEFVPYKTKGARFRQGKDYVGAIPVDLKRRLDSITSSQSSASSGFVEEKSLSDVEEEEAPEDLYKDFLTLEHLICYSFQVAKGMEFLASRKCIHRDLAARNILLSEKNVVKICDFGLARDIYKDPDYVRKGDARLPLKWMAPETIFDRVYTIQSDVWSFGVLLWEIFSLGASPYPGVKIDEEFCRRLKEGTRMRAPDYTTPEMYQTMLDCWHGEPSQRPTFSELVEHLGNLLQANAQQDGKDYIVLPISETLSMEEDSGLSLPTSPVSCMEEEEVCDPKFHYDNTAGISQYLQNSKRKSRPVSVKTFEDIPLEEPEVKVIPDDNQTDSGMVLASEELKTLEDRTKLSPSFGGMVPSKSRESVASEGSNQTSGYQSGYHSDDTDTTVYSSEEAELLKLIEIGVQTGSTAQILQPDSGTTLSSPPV
# [2] = target: T3, Cyclin-dependent kinase 1 (Homo sapiens, UniProt P06493); assay: Inhibition of CDK1
# Target sequence in this assay (P06493 whole entry): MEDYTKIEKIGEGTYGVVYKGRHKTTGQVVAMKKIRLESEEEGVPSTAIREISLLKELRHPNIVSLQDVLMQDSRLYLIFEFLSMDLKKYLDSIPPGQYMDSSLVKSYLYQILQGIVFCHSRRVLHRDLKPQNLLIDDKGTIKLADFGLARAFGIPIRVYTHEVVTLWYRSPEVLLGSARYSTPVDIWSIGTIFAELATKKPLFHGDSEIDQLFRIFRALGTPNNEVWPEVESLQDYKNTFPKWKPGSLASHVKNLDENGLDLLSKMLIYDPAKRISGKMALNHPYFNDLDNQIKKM
# [3] = target: Receptor tyrosine-protein kinase erbB-2 (Homo sapiens, UniProt P04626); assay: Inhibition of HER2
# Sequence of Receptor tyrosine-protein kinase erbB-2 (P04626 whole entry): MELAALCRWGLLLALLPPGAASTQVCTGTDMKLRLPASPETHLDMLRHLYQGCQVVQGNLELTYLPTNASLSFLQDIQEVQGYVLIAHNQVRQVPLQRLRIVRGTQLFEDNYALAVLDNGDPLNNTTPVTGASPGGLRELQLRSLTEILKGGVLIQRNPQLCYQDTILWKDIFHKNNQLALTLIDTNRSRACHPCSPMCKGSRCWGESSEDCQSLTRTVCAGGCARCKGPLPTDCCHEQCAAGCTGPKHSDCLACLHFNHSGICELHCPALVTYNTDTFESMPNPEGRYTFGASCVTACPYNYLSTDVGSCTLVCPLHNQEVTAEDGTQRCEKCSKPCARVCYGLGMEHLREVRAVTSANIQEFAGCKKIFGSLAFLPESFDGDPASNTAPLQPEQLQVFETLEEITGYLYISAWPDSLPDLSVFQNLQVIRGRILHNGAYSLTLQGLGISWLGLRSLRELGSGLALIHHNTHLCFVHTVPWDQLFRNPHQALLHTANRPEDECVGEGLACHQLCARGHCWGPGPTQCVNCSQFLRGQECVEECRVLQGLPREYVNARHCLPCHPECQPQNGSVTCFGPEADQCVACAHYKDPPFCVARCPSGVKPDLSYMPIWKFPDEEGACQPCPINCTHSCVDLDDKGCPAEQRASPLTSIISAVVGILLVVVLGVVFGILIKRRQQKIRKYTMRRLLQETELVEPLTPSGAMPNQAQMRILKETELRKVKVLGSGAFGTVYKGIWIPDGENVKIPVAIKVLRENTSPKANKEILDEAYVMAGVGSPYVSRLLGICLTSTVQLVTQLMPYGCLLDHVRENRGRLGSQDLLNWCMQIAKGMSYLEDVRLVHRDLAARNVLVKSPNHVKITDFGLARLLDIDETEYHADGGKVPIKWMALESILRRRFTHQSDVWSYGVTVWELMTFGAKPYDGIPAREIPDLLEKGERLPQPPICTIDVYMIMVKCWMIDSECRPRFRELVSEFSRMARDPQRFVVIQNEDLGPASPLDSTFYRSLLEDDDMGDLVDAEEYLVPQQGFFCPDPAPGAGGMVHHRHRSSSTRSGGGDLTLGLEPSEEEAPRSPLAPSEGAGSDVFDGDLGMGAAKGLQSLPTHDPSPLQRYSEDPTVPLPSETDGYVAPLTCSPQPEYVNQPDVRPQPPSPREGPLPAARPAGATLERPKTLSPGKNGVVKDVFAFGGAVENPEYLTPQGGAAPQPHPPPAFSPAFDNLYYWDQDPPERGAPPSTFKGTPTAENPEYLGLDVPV
# SK-BR-3 = assay: Cytotoxicity against human HER2-dependent SKBR3 cells; type: functional, cell-based
# HeLa = assay: Cytotoxicity against human non-HER2-dependent HeLa cells; type: functional, cell-based
# [4] = target: Epidermal growth factor receptor (Homo sapiens, UniProt P00533)
# Sequence of Epidermal growth factor receptor (P00533 whole entry): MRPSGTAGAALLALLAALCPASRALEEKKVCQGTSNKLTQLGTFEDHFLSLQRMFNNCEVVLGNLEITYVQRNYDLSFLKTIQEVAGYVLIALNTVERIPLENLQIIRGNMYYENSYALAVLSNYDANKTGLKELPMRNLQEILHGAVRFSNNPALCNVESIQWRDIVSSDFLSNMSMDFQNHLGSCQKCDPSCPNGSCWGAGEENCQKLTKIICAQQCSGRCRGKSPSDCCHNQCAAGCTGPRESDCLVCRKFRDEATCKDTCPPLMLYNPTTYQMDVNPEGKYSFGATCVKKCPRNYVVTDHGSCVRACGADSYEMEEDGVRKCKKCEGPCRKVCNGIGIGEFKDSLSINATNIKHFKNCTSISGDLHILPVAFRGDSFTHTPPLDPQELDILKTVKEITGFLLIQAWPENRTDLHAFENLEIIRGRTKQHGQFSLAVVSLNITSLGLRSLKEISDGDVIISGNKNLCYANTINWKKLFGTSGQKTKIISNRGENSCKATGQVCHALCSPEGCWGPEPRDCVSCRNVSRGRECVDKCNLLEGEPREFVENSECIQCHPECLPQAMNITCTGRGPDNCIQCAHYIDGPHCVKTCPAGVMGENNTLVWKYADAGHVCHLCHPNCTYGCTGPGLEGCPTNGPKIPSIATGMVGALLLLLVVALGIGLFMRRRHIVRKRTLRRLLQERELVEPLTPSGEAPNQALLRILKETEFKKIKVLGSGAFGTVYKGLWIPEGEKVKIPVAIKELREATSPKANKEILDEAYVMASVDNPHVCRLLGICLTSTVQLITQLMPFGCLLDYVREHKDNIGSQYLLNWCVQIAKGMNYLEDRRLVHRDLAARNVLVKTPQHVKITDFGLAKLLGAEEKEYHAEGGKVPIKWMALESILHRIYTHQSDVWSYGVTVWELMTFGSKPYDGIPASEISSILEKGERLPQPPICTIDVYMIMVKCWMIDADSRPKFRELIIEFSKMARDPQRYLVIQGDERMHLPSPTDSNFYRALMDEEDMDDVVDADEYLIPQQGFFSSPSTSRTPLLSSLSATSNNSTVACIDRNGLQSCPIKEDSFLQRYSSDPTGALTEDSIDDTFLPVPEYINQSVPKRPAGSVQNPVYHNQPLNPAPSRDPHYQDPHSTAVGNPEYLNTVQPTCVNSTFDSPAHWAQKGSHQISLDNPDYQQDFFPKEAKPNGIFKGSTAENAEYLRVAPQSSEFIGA
# NCI-N87 = assay: Cytotoxicity against human HER2-dependent N87 cells; type: functional, cell-based
# BT-474 = assay: Cytotoxicity against human HER2-dependent BT474 cells; type: functional, cell-based
# [5] = target: T2, Vascular endothelial growth factor receptor 2; assay: Inhibition of VEGFR2 at 100 uM
# [6] = target: T4, Aurora kinase A (Homo sapiens) (UniProt O14965); assay: Inhibition of Aurora A at 100 uM
# T4 sequence (whole entry): T1 sequence (O14965 whole entry)
# [7] = target: T3, Cyclin-dependent kinase 1; assay: Inhibition of CDK1 at 100 uM
# Target sequence in this assay (P06493 whole entry, looked up): as the sequence (P06493 whole entry) above
IC50 (Aurora kinase A) [µM],IC50 [1] [µM],IC50 [2] [µM],IC50 [3] [µM],inhibition [6] [%],Structure (SMILES),further results
100,> 100,> 100,–,–,Nc1ncnc(Nc2ccc(OCc3ccccc3)c(Cl)c2)c1C(=O)NCCN1CCCCC1,–
> 100,> 100,> 100,> 100,–,CCN(CC)C(=O)c1c(N)ncnc1Nc1ccc(OCc2ccccc2)c(Cl)c1,–
> 100,> 100,> 100,> 100,–,COCCNC(=O)c1c(N)ncnc1Nc1ccc(OCc2ccccc2)c(Cl)c1,–
> 10,> 100,> 100,> 100,–,COc1ccc(NC(=O)c2c(N)ncnc2Nc2ccc(OCc3ccccc3)c(Cl)c2)cc1,–
> 100,> 100,> 100,10,–,Nc1ncnc(Nc2ccc(OCc3ccccc3)c(Cl)c2)c1C(=O)NCCN1CCOCC1,–
> 100,> 100,> 100,0.08,–,Nc1ncnc(Nc2ccc(OCc3ccccc3)c(Cl)c2)c1-c1nnc(CCN2CCOCC2)o1,IC50 (SK-BR-3): 0.325 µM; IC50 (HeLa): > 100 µM; IC50 [4]: 0.03 µM; IC50 (NCI-N87): 0.411 µM; IC50 (BT-474): 0.312 µM
> 100,> 100,> 100,> 100,–,Nc1ncnc(Nc2ccc(OCc3ccccc3)c(Cl)c2)c1C(=O)OCc1cccc(F)c1,–
> 100,> 100,> 100,> 100,–,COc1ccc(CCNC(=O)c2c(N)ncnc2Nc2ccc(OCc3ccccc3)c(Cl)c2)cc1,–
> 100,> 100,> 100,–,–,Nc1ncnc(Nc2ccc(OCc3ccccc3)c(Cl)c2)c1C(=O)NNC(=O)CCN1CCOCC1,–
–,–,–,0.47,33,N#Cc1c(N)ncnc1Nc1ccc(OCc2ccccc2)c(Cl)c1,inhibition [5]: 37%; inhibition [7]: < 10%; IC50 [4]: 0.027 µM
–,–,–,–,30,Nc1ncnc(Nc2ccc(OCc3ccccc3)c(Cl)c2)c1C=O,inhibition [5]: < 10%; inhibition [7]: < 10%
> 10,> 10,> 100,0.146,–,NNC(=O)c1c(N)ncnc1Nc1ccc(OCc2ccccc2)c(Cl)c1,–
–,–,–,1.53,55,Nc1ncnc(Nc2ccc(OCc3ccccc3)c(Cl)c2)c1C(=O)OCCN1CCOCC1,inhibition [5]: 11%; inhibition [7]: < 10%
–,–,–,–,73,Nc1ncnc(Nc2ccc(OCc3ccccc3)c(Cl)c2)c1C(=O)O,inhibition [5]: 30%; inhibition [7]: < 10%
–,–,–,0.1,50,COC(=O)c1c(N)ncnc1Nc1ccc(OCc2ccccc2)c(Cl)c1,–

Structure (SMILES),IC50 (Aurora kinase A) [µM],IC50 [1] [µM],IC50 [2] [µM],IC50 [3] [µM],inhibition [6] [%],further results
Nc1ncnc(Nc2ccc(OCc3ccccc3)c(Cl)c2)c1C(=O)Nc1ccccc1,> 100,> 100,> 100,> 100,–,IC50 [4]: 0.076 µM
